Source: PubChem BioAssay AID2060485 (Molecular Pharmacology Branch, DTP, NCI, 2025)

Tested on: A375 multi-cell spheroids with HUVEC/MSC, viability
Test: Anticancer human tumor A375 cell line growth inhibition [GQUAD];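 note: spheroids exposed to compounds for seven days before readout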
Conditions: for IC50: curve of first compound; for viability, T/C: stronger effect = lower value; active = viability on the fitted dose curve at most 10% of control; inactive = the rest
How it was run: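 Tumor cells were grown as complex spheroids with HUVEC endothelial cells and mesenchymal stem cells as stroma. G-quadruplex stabilizers were combined with targeted agents over half-log dilutions from near the clinical Cmax, or from 10 microM.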

[1] = second compound 0.0316 µM, first compound 0.0316 µM
[2] = second compound 0.0316 µM, first compound 0.1 µM
[3] = second compound 0.0316 µM, first compound 0.316 µM
[4] = second compound 0.0316 µM, first compound 1 µM
[5] = second compound 0.0316 µM, first compound 3.16 µM
[6] = second compound 0.0316 µM, first compound 10 µM
[7] = second compound 0.1 µM, first compound 0.0316 µM
[8] = second compound 0.1 µM, first compound 0.1 µM
[9] = second compound 0.1 µM, first compound 0.316 µM
[10] = second compound 0.1 µM, first compound 1 µM
[11] = second compound 0.1 µM, first compound 3.16 µM
[12] = second compound 0.1 µM, first compound 10 µM
[13] = second compound 0.316 µM, first compound 0.0316 µM
[14] = second compound 0.316 µM, first compound 0.1 µM
[15] = second compound 0.316 µM, first compound 0.316 µM
[16] = second compound 0.316 µM, first compound 1 µM
[17] = second compound 0.316 µM, first compound 3.16 µM
[18] = second compound 0.316 µM, first compound 10 µM
[19] = second compound 1 µM, first compound 0.0316 µM
[20] = second compound 1 µM, first compound 0.1 µM
[21] = second compound 1 µM, first compound 0.316 µM
[22] = second compound 1 µM, first compound 1 µM
[23] = second compound 1 µM, first compound 3.16 µM
[24] = second compound 1 µM, first compound 10 µM
[25] = second compound 3.16 µM, first compound 0.0316 µM
[26] = second compound 3.16 µM, first compound 0.1 µM
[27] = second compound 3.16 µM, first compound 0.316 µM
[28] = second compound 3.16 µM, first compound 1 µM
[29] = second compound 3.16 µM, first compound 3.16 µM
[30] = second compound 3.16 µM, first compound 10 µM
[31] = second compound 10 µM, first compound 0.0316 µM
[32] = second compound 10 µM, first compound 0.1 µM
[33] = second compound 10 µM, first compound 0.316 µM
[34] = second compound 10 µM, first compound 1 µM
[35] = second compound 10 µM, first compound 3.16 µM
[36] = second compound 10 µM, first compound 10 µM

COc1ncnc(C2CC2)c1-c1ncc2cnn(Cc3ccc(-c4nc(C(F)(F)F)cn4C(C)C)cc3)c2n1 + Cc1[nH]c2ccc(F)cc2c1-c1nc2c3cccnc3c3ncccc3c2[nH]1
> 10000 nM: IC50 (second compound 0.0316 µM) | IC50 (second compound 0.1 µM) | IC50 (second compound 0.316 µM) | IC50 (second compound 1 µM)
3730 nM: IC50 (second compound 3.16 µM)
inactive: viability, T/C [1] 102% | viability, T/C [2] 107% | viability, T/C [3] 109% | viability, T/C [4] 108% | viability, T/C [5] 107% | viability, T/C [6] 106% | viability, T/C [7] 119% | viability, T/C [8] 106% | viability, T/C [9] 93.8% | viability, T/C [10] 112% | viability, T/C [11] 107% | viability, T/C [12] 123% | viability, T/C [13] 104% | viability, T/C [14] 104% | viability, T/C [15] 108% | viability, T/C [16] 106% | viability, T/C [17] 112% | viability, T/C [18] 108% | viability, T/C [19] 104% | viability, T/C [20] 106% | viability, T/C [21] 99.9% | viability, T/C [22] 106% | viability, T/C [23] 100% | viability, T/C [24] 104% | viability, T/C [25] 72.2% | viability, T/C [26] 72.5% | viability, T/C [27] 77% | viability, T/C [28] 61% | viability, T/C [29] 54.1% | viability, T/C [30] 34.3% | viability, T/C [31] 88.9% | viability, T/C [32] 92.9% | viability, T/C [33] 87.2% | viability, T/C [34] 79.7% | viability, T/C [35] 61.3% | viability, T/C [36] 43.5%
6580 nM: IC50 (second compound 10 µM)

CC(C)n1c(=O)n(C)c2cnc3cc(F)c(-c4ccc(OCCCN5CCCCC5)nc4)cc3c21 + Cc1cnc(CNC(=O)c2c(=O)c3ccc(N4CCCN(C)CC4)nc3n3c2sc2ccccc23)cn1
> 10000 nM: IC50 (second compound 0.0316 µM) | IC50 (second compound 0.1 µM)
778 nM: IC50 (second compound 0.316 µM)
85.3 nM: IC50 (second compound 1 µM)
< 31.6 nM: IC50 (second compound 3.16 µM) | IC50 (second compound 10 µM)
inactive: viability, T/C [1] 108% | viability, T/C [2] 90.5% | viability, T/C [3] 98.4% | viability, T/C [4] 82.2% | viability, T/C [5] 72.5% | viability, T/C [6] 58.7% | viability, T/C [7] 77.6% | viability, T/C [8] 64.2% | viability, T/C [9] 74.2% | viability, T/C [10] 63.4% | viability, T/C [11] 55.5% | viability, T/C [12] 50.7% | viability, T/C [13] 60.5% | viability, T/C [14] 53.1% | viability, T/C [15] 53% | viability, T/C [16] 49.8% | viability, T/C [17] 45.6% | viability, T/C [18] 37.6% | viability, T/C [19] 56% | viability, T/C [20] 47.4% | viability, T/C [21] 40.4% | viability, T/C [22] 45.2% | viability, T/C [23] 40.3% | viability, T/C [24] 30.5% | viability, T/C [25] 43.7% | viability, T/C [26] 41.9% | viability, T/C [27] 40% | viability, T/C [28] 36.8% | viability, T/C [29] 37.2% | viability, T/C [30] 28.4% | viability, T/C [31] 35.8% | viability, T/C [32] 39% | viability, T/C [33] 38.9% | viability, T/C [34] 34.2% | viability, T/C [35] 30.3% | viability, T/C [36] 22.8%

CC1COCCN1c1cc(-c2ccnn2C)c2ccnc(-c3ccn[nH]3)c2n1 (stereo not drawn) + Cc1cnc(CNC(=O)c2c(=O)c3ccc(N4CCCN(C)CC4)nc3n3c2sc2ccccc23)cn1
< 31.6 nM: IC50 (second compound 0.316 µM) | IC50 (second compound 1 µM) | IC50 (second compound 3.16 µM) | IC50 (second compound 10 µM)
74.3 nM: IC50 (second compound 0.1 µM)
inactive: viability, T/C [1] 102% | viability, T/C [2] 69.3% | viability, T/C [3] 51.9% | viability, T/C [4] 28.3% | viability, T/C [5] 13.8% | viability, T/C [6] 13.9% | viability, T/C [7] 67.5% | viability, T/C [8] 37.5% | viability, T/C [9] 35.9% | viability, T/C [10] 23.3% | viability, T/C [11] 13.7% | viability, T/C [12] 9.98% | viability, T/C [13] 39.5% | viability, T/C [14] 33.8% | viability, T/C [15] 27.6% | viability, T/C [16] 21.7% | viability, T/C [17] 13.9% | viability, T/C [18] 10.4% | viability, T/C [19] 38.2% | viability, T/C [20] 35% | viability, T/C [21] 29.6% | viability, T/C [22] 21.5% | viability, T/C [23] 12.7% | viability, T/C [25] 30.8% | viability, T/C [26] 30.2% | viability, T/C [27] 30.7% | viability, T/C [28] 22.4% | viability, T/C [29] 13.2% | viability, T/C [31] 26.7% | viability, T/C [32] 27.9% | viability, T/C [33] 24.1% | viability, T/C [34] 16.9% | viability, T/C [35] 13.3%
279 nM: IC50 (second compound 0.0316 µM)
active: viability, T/C [24] 11.3% | viability, T/C [30] 10% | viability, T/C [36] 9.71%

CC1COCCN1c1cc(C2(O)CC3CCC(C2)O3)c2cnn(-c3ccn[nH]3)c2n1 (stereo not drawn) + Cc1cnc(CNC(=O)c2c(=O)c3ccc(N4CCCN(C)CC4)nc3n3c2sc2ccccc23)cn1
inactive: viability, T/C [1] 86.1% | viability, T/C [2] 51.7% | viability, T/C [3] 38.3% | viability, T/C [4] 15.7% | viability, T/C [5] 10.2% | viability, T/C [7] 57% | viability, T/C [8] 42.5% | viability, T/C [9] 31.2% | viability, T/C [10] 15.2% | viability, T/C [11] 11% | viability, T/C [13] 38% | viability, T/C [14] 29.7% | viability, T/C [15] 28.9% | viability, T/C [16] 19.1% | viability, T/C [17] 10.3% | viability, T/C [19] 40.9% | viability, T/C [20] 32% | viability, T/C [21] 27.3% | viability, T/C [22] 14.4% | viability, T/C [23] 10.5% | viability, T/C [25] 31.9% | viability, T/C [26] 27.4% | viability, T/C [27] 23.4% | viability, T/C [28] 14.3% | viability, T/C [29] 10.1% | viability, T/C [31] 24.7% | viability, T/C [32] 22.5% | viability, T/C [33] 21.8% | viability, T/C [34] 13.7%
active: viability, T/C [6] 7.77% | viability, T/C [12] 7.11% | viability, T/C [18] 7.26% | viability, T/C [24] 7.81% | viability, T/C [30] 5.41% | viability, T/C [35] 9.6% | viability, T/C [36] 4.53%
< 31.6 nM: IC50 (second compound 0.316 µM) | IC50 (second compound 1 µM) | IC50 (second compound 3.16 µM) | IC50 (second compound 10 µM)
127 nM: IC50 (second compound 0.0316 µM)
57.5 nM: IC50 (second compound 0.1 µM)
